Numbers after ± are expanded uncertainties.
Conditions: 298.15 K; 101.33 kPa; Liquid; Pycnometric method

Row | mass density [kg/m3] | Compound
1 | 765.68 ± 0.69 | CCC(C)(C)OC [2-methoxy-2-methylbutane]
2 | 805.87 ± 0.72 | CCCCO [butan-1-ol]
3 | 802.73 ± 0.72 | CCC(C)O (stereo not drawn) [butan-2-ol]
4 | 785.29 ± 0.71 | CCO [ethanol]
5 | 786.64 ± 0.71 | CO [methanol]
6 | 799.89 ± 0.72 | CCCO [propan-1-ol]
7 | 781.34 ± 0.7 | CC(C)O [propan-2-ol]
8 | 997.17 ± 0.9 | O [water]

— the NIST ThermoML archive (doi:10.1021/je8006698)
